Counter-ions that a name gives are not always drawn.
Tested on: LPS induced gut leakage
Experiment: Endotoxin induced hemorragic lesions / LPS induced gut leakage in rats
Assay type: in vivo, rat (male Wistar)
Conditions: for % of control leakage (K), IV LPS induced gut leakage: ± SEM; for protection against LPS induced gut damage: IV LPS
Description: One of the main sites of LPS induced pathology in the rat and guinea pig is the gut, particularly the duodenum, small intestine and cecum. After LPS exposure hemorragic lesions develop within a few minutes and can involve most of the lumenal surface. The extent of these pathologies can be quantitated histologically or by measuring the amount of plasma proteins that have leaked into the lumen. The second method is much faster and can detect damage in the junctions between capillary or intestinal epithelial cells before gross lesions have developed. Hot tags have shown plasma leakage after LPS challenge using radiolabeled albumin as the probe. In our assay we have chosen to use a non-radioactive tagging method in which plasma albumin is labeled with Evan's blue dye and the lumenal leakage is determined spectrophotometricly.
Evan's blue dye: Sigma e-2129, made as a 1% w/v solution in saline which was filtered and kept refrigerated.
For each experiment fresh 3-[[3-[[hydroxy[2-methoxy-3-(tetradecyloxy)phenoxy]phosphinyl]oxy]phenyl]- methyl]-5-methyl-thiazolium, hydroxide, inner salt was sonicated into saline.
LPS solutions were made fresh for each experiment.
Male Wistar rats, obtained from Charles River, weighing 160-225 gm were maintained in accordance with ALAC standards for at least one week before use.
Food was withheld from the animals for 18 hours before the experiment to clear the intestine. The rats were dosed with 3-[[3-[[hydroxy[2-methoxy-3-(tetradecyloxy)phenoxy]phosphinyl]oxy]phenyl]methyl]-5-methyl-thiazolium, hydroxide, inner salt or saline ip, 4 ml/kg, 1/2 hour before challenge with 25 or 50 mg/kg LPS in the 1% dye at 10 ml/kg. One hour after the LPS insult the animals were sacrificed and the duodenum and initial 6-7 cm of the jejunum isolated. This segment was lavaged with 2 ml of normal saline with the fluid flowing into polyethylene tubes. The lavageate frequently contained mucous and in order to free the stained albumin the samples were sonicated vigorously and then centrifuged to clarify the fluid. The amount of dye was determined spectrophotometrically, using a Vmax microtiter plate reader using the end point mode at […].

CCCCCCCCCCCCCCOc1cccc(OP(=O)([O-])Oc2cccc(C[n+]3csc(C)c3)c2)c1OC [3-[[3-[[Hydroxy[2-methoxy-3-(tetradecyloxy)phenoxy]-phosphinyl]oxy]phenyl]methyl]-5-methyl-thiazolium, hydroxide, inner salt]
% of control leakage (K), IV LPS induced gut leakage (0.125 mg/kg IP, Experiment 1): 24 ± 15% | % of control leakage (K), IV LPS induced gut leakage (0.125 mg/kg IP, Experiment 2): 107 ± 27% | % of control leakage (K), IV LPS induced gut leakage (0.25 mg/kg IP, Experiment 1): 36 ± 23% | % of control leakage (K), IV LPS induced gut leakage (0.25 mg/kg IP, Experiment 2): 65 ± 15% | % of control leakage (K), IV LPS induced gut leakage (0.5 mg/kg IP, Experiment 1): 15 ± 10% | % of control leakage (K), IV LPS induced gut leakage (0.5 mg/kg IP, Experiment 2): 16 ± 9% | % of control leakage (K), IV LPS induced gut leakage (1 mg/kg IP, Experiment 1): 22 ± 15% | % of control leakage (K), IV LPS induced gut leakage (2 mg/kg IP, Experiment 1): 10 ± 10% | % of control leakage (K), IV LPS induced gut leakage (2 mg/kg IP, Experiment 2): 18 ± 24% | % of control leakage (K), IV LPS induced gut leakage (2 mg/kg IP, Experiment 3): 27 ± 11% | % of control leakage (K), IV LPS induced gut leakage (20 mg/kg IP, Experiment 1): 20 ± 2% | % of control leakage (K), IV LPS induced gut leakage (20 mg/kg IP, Experiment 2): 19 ± 31% | activity seen at doses as low as (IP): 1/2 | doses as low as (able to reduce or eliminate damage produced by IV LPS) (IP one hour before challenge): 1/2 | protection against LPS induced gut damage (IP): able to reduce or eliminate the damage produced by IV LPS | protection against LPS induced gut damage (IP, listed as 3-[[3-[[hydroxy[2-methoxy-3-(tetradecyloxy)phenoxy]-phosphinyl]oxy]phenyl]-methy): very potent protection against the end point of gut pathophysiology | direct observation of the intestinal tract of LPS challenged protected animals (LPS challenge): nearly normal appearing guts | minimal effective dose (Rattus norvegicus, ip, read-out: doses as low as (prevents the gut manifestations of endotoxin shock), rats): 0.25 mg/kg | diarrhea in LPS challenged treated animals (virtually all control animals had severe diarrhea): little or none

Source: patent US5231091A, “Bis-arylphosphate ester antagonists of platelet activating factor” (priority 1992, dated 1993)
